Experimental data as given in PubChem BioAssay (NCI).
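A five-concentration, 48-hour dose response in 96-well plates underlies each endpoint, interpolated linearly between surrounding concentrations. Here, GI50 denotes the concentration required for 50% inhibition of growth. Definition used: TGI = concentration required for complete inhibition of growth.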

Key:
Assay in all cases: NCI tumour cell line growth inhibition, 48 h
[1] = test system: A498 renal
[2] = test system: HOP-62 NSCLC
[3] = test system: NCI/ADR-RES ovarian
[4] = test system: CAKI-1 renal
[5] = test system: MCF7 breast
[6] = test system: EKVX NSCLC
[7] = test system: HL-60(TB) leukemia
[8] = test system: UACC-62 melanoma
[9] = test system: CCRF-CEM leukemia
[10] = test system: SNB-19 CNS

SMILES	TGI [1] [µM]	TGI [2] [µM]	TGI [3] [µM]	TGI [4] [µM]	TGI [5] [µM]	TGI [6] [µM]	TGI [7] [µM]	TGI [8] [µM]	TGI [9] [µM]	TGI [10] [µM]	GI50 [1] [µM]	GI50 [2] [µM]	GI50 [3] [µM]	GI50 [4] [µM]	GI50 [5] [µM]	GI50 [6] [µM]	GI50 [7] [µM]	GI50 [8] [µM]	GI50 [9] [µM]	GI50 [10] [µM]
O=C(O)CC(C(=O)O)C1c2ccccc2-c2ccccc21 (configuration not stated)	> 100	> 100	> 100	> 100	> 100	> 100	> 100	> 100	> 100	> 100										
OC(Cc1ccccc1)(Cc1ccccc1)c1ccccc1	34.1	36.1	71.6	47.7		38	52.8	31.3	> 100	67.9										
Nc1cc(S(=O)(=O)O)cc2cc(S(=O)(=O)O)c(N=Nc3ccc(-c4ccc(N=Nc5c(S(=O)(=O)O)cc6cc(S(=O)(=O)O)cc(N)c6c5O)cc4)cc3)c(O)c12	> 100	> 100	> 100		> 100	> 100	> 100		> 100	> 100										
O=Nc1ccc(O)c2ncccc12	42.4	15	18.3	31.1	16.6	5.8	> 41.6	2.34	> 100	74.7										
CCN(CC)C(=S)SC(=S)N(CC)CC	> 100	> 100	> 100	99.7	> 100	> 100	> 100	> 93.1		> 100										
c1ccc(-n2cnnc2-c2nsc3ccccc23)cc1		> 100				> 100	> 100	> 100	> 100	> 100										
COc1ccc(-c2nn(-c3ccc(NC(=O)Nc4ccc(Cl)c(Cl)c4)cc3)cc2-c2ccncc2)cc1Cl	8.04	> 100	> 100	15.4	9.34	> 100	6.6	7.33	> 100	> 100	1.75	3.73	2.06	1.95	2.37	2.18	2.21	2.1	2.09	3.36
CC(C)=CCc1c(O)ccc2c1OC1c3ccc(O)c(CC=C(C)C)c3OCC21 (configuration not stated)	25	23.9	32.2	25	16.9	26.8	31.4	18.7	43	27.6										
C[C@H](C(=O)N[C@@H](Cc1ccc(-c2ccccc2)cc1)C(=O)NC1CC(C)(C)N(C)C(C)(C)C1)c1ccc(-c2ccccc2)c(F)c1			4.19					3.63					1.77					1.92		
COc1cc(C(C)(C)C)cc(OC)c1C(O)(c1c(OC)cc(C(C)(C)C)cc1OC)c1c(OC)cc(C(C)(C)C)cc1OC	2.53						0.394				0.477						0.14			
O=[N+]([O-])c1ccc(/C=N\Nc2ccc([N+](=O)[O-])cn2)cc1		> 100	> 100		> 100	> 100	> 100	> 100	> 100	> 100										
N=C(N)c1ccc(-c2ccc(-c3cncc4ccccc34)s2)cc1F	2.5			2.91							1.06			1.52						
Nc1ccc(OCC(O)N2C(=O)c3ccccc3C2=O)cc1 (configuration not stated)		> 100	> 100		> 100	> 100	> 100	> 100	> 100	> 100										
C/C1=N\NC(=O)c2ccccc2C(=O)N/N=C(\C)c2cccc1n2.O=[N+]([O-])[O-].[Zn+2]	> 100	> 100		> 100		> 100		> 100	> 100	> 100										
